Experimental data published in patent US20040106216A1, “Method of measuring drug-metabolizing enzyme activity, method of evaluating inhibition of drug-metabolizing enzyme activity, and composition for these methods” (Toyo Boseki Kabushiki Kaisha, priority 2002, published 2004).
Residue numbers refer to the chain shown, from its start.

Legend:
[1] = system: Pseudomonas-derived 17β-hydroxysteroid dehydrogenase; assay: Inhibition of 17β-hydroxysteroid dehydrogenase, estrone substrate, estradiol enzyme immunoassay; format: biochemical; conditions: 0-20 μM final concentration, FIG. 8
[2] = target: human cytochrome P450 CYP2C9 (359Ile) (Homo sapiens, UniProt P11712)
Chain of human cytochrome P450 CYP2C9 (359Ile) (P11712 whole entry): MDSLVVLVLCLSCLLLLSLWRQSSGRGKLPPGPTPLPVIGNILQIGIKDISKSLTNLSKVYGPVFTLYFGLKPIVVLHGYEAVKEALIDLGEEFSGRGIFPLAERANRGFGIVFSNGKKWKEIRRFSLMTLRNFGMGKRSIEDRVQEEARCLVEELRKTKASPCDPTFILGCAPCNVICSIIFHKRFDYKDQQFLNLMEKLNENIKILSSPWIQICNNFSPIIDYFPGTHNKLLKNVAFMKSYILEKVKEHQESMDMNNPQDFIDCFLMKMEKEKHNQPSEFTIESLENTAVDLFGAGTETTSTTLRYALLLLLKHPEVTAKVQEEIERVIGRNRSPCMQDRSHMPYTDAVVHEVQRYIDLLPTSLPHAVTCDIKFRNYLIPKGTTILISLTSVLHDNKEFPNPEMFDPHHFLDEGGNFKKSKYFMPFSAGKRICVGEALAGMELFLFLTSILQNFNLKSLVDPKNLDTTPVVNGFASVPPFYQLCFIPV
Description: (§1) Purified anti-fluorescein antibodies obtained using as the antigen a protein cross-linked using the X position of fluorescein were diluted with 50 mM carbonic acid buffer (pH 9.6) to a concentration of 1 μg/ml (antibody adsorption liquid), and 100 μL per well was poured into Corning Costar microtiter plates (polystyrene 96-well type). The surfaces were then sealed, and the plates left overnight at 4° C. The following day the antibody adsorption liquid was removed, and each well washed 3 times with 200 μL of 10 mM phosphoric acid buffer (pH 7.2, containing 150 mM NaCl). After washing, using 10 mM phosphoric acid buffer (pH 7.2, containing 150 mM NaCl: phosphoric acid buffer 1) as the base, each well was filled with 200 μL of a blocking solution containing 0.2% casein and 10% sucrose. After being filled with the blocking liquid the plates were left overnight at 4° C., and the following day the blocking liquid was removed and vacuum drying applied for 16 hours. The vacuum-dried plates were sealed in storage bags under reduced pressure, and stored at 4° C. prior to the following measurements.
(§2) A system expressing human cytochrome P450 CYP2C9 was constructed according to the methods of Goldstein et al (Goldstein J. A. et al, Biochemistry Vol. 33 pp 1743-1752 (1994)). A single nucleotide mutation (A→C) replacing isoleucine at 359 position with leucine was then introduced by ordinary methods. Two types of enzyme preparations, human cytochrome P450 CYP2C9 (359Ile) and (359Leu), were prepared by methods described in the literature and used in the following experiment.
(§3) The two human cytochrome P450 CYP2C9 preparations were diluted with 100 mM phosphoric acid buffer (pH 7.2, containing 0.1% BSA: phosphoric acid buffer 2), and concentrations sequences prepared. […]

[3] = target: human cytochrome P450 CYP2C9 (359Leu) (Homo sapiens, UniProt P11712, I359L); conditions: 30 μM dibenzylfluorescein; 0-1.2 μM final concentration; FIG. 20
Chain of human cytochrome P450 CYP2C9 (359Leu) (P11712 whole entry I359L): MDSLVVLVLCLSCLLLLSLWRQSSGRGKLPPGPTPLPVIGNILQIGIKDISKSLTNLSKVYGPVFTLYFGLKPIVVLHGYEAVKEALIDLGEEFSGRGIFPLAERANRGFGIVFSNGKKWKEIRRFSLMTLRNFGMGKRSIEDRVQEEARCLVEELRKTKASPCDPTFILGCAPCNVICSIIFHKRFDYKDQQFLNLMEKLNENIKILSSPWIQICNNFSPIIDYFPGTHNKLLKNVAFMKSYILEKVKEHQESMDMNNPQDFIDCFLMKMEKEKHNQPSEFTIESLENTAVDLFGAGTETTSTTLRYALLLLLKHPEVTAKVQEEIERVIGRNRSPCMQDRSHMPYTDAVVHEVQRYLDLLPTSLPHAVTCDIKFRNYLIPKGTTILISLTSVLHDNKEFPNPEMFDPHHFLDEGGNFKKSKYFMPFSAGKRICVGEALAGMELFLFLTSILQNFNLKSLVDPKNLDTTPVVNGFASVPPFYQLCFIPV
Description: as §1, §2, §3

[4] = target: T1, pig cytochrome P450 CYP19 (133Ile) (Sus scrofa, UniProt P79430); assay: Inhibition of pig cytochrome P450 CYP19 (133Ile), testosterone substrate, estradiol enzyme immunoassay; format: biochemical
T1 construct: made in house
T1 sequence (P79430 1-503): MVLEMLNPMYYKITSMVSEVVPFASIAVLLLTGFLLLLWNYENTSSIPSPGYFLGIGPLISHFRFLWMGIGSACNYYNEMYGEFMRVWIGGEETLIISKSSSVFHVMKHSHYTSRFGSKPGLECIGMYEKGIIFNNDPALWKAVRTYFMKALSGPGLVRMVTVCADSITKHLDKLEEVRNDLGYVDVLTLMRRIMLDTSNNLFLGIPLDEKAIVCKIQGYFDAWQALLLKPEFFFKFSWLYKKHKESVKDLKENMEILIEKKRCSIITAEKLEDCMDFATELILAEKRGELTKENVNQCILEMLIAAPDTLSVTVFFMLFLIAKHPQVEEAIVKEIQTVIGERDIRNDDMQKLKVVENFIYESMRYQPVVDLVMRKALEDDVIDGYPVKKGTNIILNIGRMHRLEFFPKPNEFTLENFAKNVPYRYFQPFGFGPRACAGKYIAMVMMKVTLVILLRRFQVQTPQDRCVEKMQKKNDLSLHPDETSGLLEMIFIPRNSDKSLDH
Description: as §1, with “Purified anti-estradiol” for “Purified anti-fluorescein”, “the 3rd” for “the X”, “of estradiol” for “of fluorescein”, “diluted in” for “diluted with”, “10% saccharose.” for “10% sucrose.”
(§4) A placental system expressing pig cytochrome P450 CYP19 was prepared according to the methods described in Mol. Endocrinol. Vol. 16, pp 1456-1468 (2002), and a mutation introduced replacing isoleucine 133 with methionine or alanine according to ordinary methods. […]

[5] = target: T2, human cytochrome P450 CYP19 (Homo sapiens, UniProt P11511); assay: Inhibition of human cytochrome P450 CYP19 (aromatase), testosterone substrate, estradiol enzyme immunoassay; format: biochemical; conditions: 62.5 μM testosterone, 20 minutes at 37° C.; α-naphthoflavone 0-3.2 μM, aminoglutethimide 0-9 μM final concentration; FIG. 6, 7
T2 construct: purchased BD Science (Gentest)
T2 sequence (P11511 1-503): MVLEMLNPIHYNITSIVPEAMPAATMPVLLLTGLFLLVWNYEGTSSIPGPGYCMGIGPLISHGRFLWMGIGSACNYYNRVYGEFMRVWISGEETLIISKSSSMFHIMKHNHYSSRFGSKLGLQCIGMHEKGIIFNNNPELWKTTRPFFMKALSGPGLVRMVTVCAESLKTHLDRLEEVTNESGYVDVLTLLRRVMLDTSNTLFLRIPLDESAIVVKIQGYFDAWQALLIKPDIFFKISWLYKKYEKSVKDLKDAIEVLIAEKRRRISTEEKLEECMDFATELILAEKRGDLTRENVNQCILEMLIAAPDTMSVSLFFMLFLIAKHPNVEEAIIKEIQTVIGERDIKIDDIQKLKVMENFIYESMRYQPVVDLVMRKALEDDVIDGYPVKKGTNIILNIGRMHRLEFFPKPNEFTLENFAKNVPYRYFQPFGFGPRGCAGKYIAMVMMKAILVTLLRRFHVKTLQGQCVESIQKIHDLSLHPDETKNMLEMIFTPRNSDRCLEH
Description: as §1, with “The” for “Purified anti-fluorescein antibodies obtained using as the antigen a protein cross-linked using the X position of fluorescein were diluted with 50 mM carbonic acid buffer (pH 9.6) to a concentration of 1 μg/ml (antibody adsorption liquid), and 100 μL per well was poured into Corning Costar microtiter plates (polystyrene 96-well type). The”

[6] = target: T3, pig cytochrome P450 CYP19 (133Met) (Sus scrofa, UniProt P79430, I133M); assay: Inhibition of pig cytochrome P450 CYP19 (133Met), testosterone substrate, estradiol enzyme immunoassay; format: biochemical; conditions: 62.5 μM testosterone; 0-3.2 μM final concentration; FIG. 16
T3 construct: made in house
T3 sequence (P79430 1-503 I133M): T1 sequence (P79430 1-503) with I133M
Description: as §1, with “Purified anti-estradiol” for “Purified anti-fluorescein”, “the 3rd” for “the X”, “of estradiol” for “of fluorescein”, “diluted in” for “diluted with”, “10% saccharose.” for “10% sucrose.”
as §4

For O=c1c(-c2ccc(O)cc2)coc2cc(O)cc(O)c12 [genistein], the “inhibition of 17β-hydroxysteroid dehydrogenase (relationship between solution concentration and absorbance at 450 nm)” value [1] was “the stronger the inhibition of 17β-hydroxysteroid dehydrogenase”.
For Nc1ccc(S(=O)(=O)Nc2ccnn2-c2ccccc2)cc1 [sulfaphenazole], the “inhibition of human cytochrome P450 CYP2C9 (359Ile) (concentration vs absorbance at 450 nm)” value ([2]; 30 μM dibenzylfluorescein, 0-1.2 μM final concentration, FIG. 19) was “the greater the inhibition of the two types of human cytochrome P450 CYP2C9”, the “difference between inhibition-dose curves of the two enzyme preparations” value ([2]; human CYP2C9 (359Ile) versus (359Leu), FIGS. 19 and 20) was “obvious differences between the sulfaphenazole inhibition-dose curves” and the “inhibition of human cytochrome P450 CYP2C9 (359Leu) (concentration vs absorbance at 450 nm)” value [3] was “the greater the inhibition of the two types of human cytochrome P450 CYP2C9”.
For O=c1cc(-c2ccccc2)oc2c1ccc1ccccc12 [α-naphthoflavone], the “inhibition of pig cytochrome P450 CYP19 (133Ile) (concentration vs absorbance at 450 nm)” value ([4]; 62.5 μM testosterone, 0-3.2 μM final concentration, FIG. 15) was “the greater the inhibition of pig cytochrome P450 CYP19”, the “difference in degree of inhibition between preparation (133Ile) and preparation (133Met)” value ([4]; pig CYP19 (133Ile) versus (133Met), FIGS. 15 and 16) was “the degree of inhibition differed greatly” and the “inhibition of cytochrome P450 CYP19 (relationship between solution concentration and absorbance at 450 nm)” value [5] was “the greater the inhibition of cytochrome P450 CYP19”. The “inhibition of pig cytochrome P450 CYP19 (133Met) (concentration vs absorbance at 450 nm)” value [6] was “the greater the inhibition of pig cytochrome P450 CYP19”.
